Assay: Anticancer human tumor 997537-175-T-J1-PDC patient-derived colon adenocarcinoma cell line growth inhibition [POLQ]
Conditions: 997537-175-T-J1-PDC complex spheroid viability, combination with POLQ inhibitors; second compound 10 µM; first compound 0.0316 µM; stronger effect = lower value
Method in brief: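 PDC + HUVEC + MSC complex spheroids; POLQ inhibitors ± partner drugs; top conc. at/near clinical Cmax, else 10 microM (SN-38 1 microM), half-log dilutions; 37 degrees C, 5% CO2.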
With CCCS(=O)(=O)Nc1ccc(F)c(C(=O)c2c[nH]c3ncc(-c4ccc(Cl)cc4)cc23)c1F + Cc1cccc(N(C)C(=O)C2C(O)CCN2c2nc(C)cc(C(F)(F)F)c2C#N)c1 the viability, T/C was 92.3%.
In the case of CCc1cc2c(N3CCc4c(cc(Cn5ccnc5)cc4-c4cn(C)nc4C(F)(F)F)C3=O)ccnc2c(OC)n1 + Cc1cccc(N(C)C(=O)C2C(O)CCN2c2nc(C)cc(C(F)(F)F)c2C#N)c1, the viability, T/C is reported as 87.8%.

Same assay, conditions: 997537-175-T-J1-PDC complex spheroid viability, combination with POLQ inhibitors; second compound 10 µM; first compound 0.1 µM; stronger effect = lower value
With Nc1ccn(C2OC(CO)C(O)C2(F)F)c(=O)n1 (configuration not stated) + Cc1cccc(N(C)C(=O)C2C(O)CCN2c2nc(C)cc(C(F)(F)F)c2C#N)c1 the viability, T/C was 97.2%.
Work on CC1COCCN1c1cc(-c2ccnn2C)c2ccnc(-c3ccn[nH]3)c2n1 (configuration not stated) + COC1C(OC(N)=O)C(O)C(Oc2ccc3c(O)c(NC(=O)c4ccc(O)c(CC=C(C)C)c4)c(=O)oc3c2C)OC1(C)C yielded a viability, T/C of 64.7%.
Compound CC1COCCN1c1cc(C2(S(C)(=N)=O)CC2)nc(-c2ccnc3[nH]ccc23)n1 (configuration not stated) + Nc1ccc(C#CCN(C(=O)Cc2ncc(C(F)(F)F)cc2C(F)(F)F)c2ccc(F)cc2)nn1 has a viability, T/C of 94.6%.
CCCS(=O)(=O)Nc1ccc(F)c(C(=O)c2c[nH]c3ncc(-c4ccc(Cl)cc4)cc23)c1F + Cc1cccc(N(C)C(=O)C2C(O)CCN2c2nc(C)cc(C(F)(F)F)c2C#N)c1 showed a viability, T/C of 88.9%.
For CCc1cc2c(N3CCc4c(cc(Cn5ccnc5)cc4-c4cn(C)nc4C(F)(F)F)C3=O)ccnc2c(OC)n1 + Cc1cccc(N(C)C(=O)C2C(O)CCN2c2nc(C)cc(C(F)(F)F)c2C#N)c1, the viability, T/C was 92.7%.

Same assay, conditions: 997537-175-T-J1-PDC complex spheroid viability, combination with POLQ inhibitors; second compound 10 µM; first compound 0.316 µM; stronger effect = lower value
With Nc1ccn(C2OC(CO)C(O)C2(F)F)c(=O)n1 (configuration not stated) + Cc1cccc(N(C)C(=O)C2C(O)CCN2c2nc(C)cc(C(F)(F)F)c2C#N)c1 the viability, T/C was 96.6%.
In the case of CC1COCCN1c1cc(-c2ccnn2C)c2ccnc(-c3ccn[nH]3)c2n1 (configuration not stated) + COC1C(OC(N)=O)C(O)C(Oc2ccc3c(O)c(NC(=O)c4ccc(O)c(CC=C(C)C)c4)c(=O)oc3c2C)OC1(C)C, the viability, T/C is reported as 44%.
For CC1COCCN1c1cc(C2(S(C)(=N)=O)CC2)nc(-c2ccnc3[nH]ccc23)n1 (configuration not stated) + Nc1ccc(C#CCN(C(=O)Cc2ncc(C(F)(F)F)cc2C(F)(F)F)c2ccc(F)cc2)nn1, the viability, T/C was 94.6%.
For CCCS(=O)(=O)Nc1ccc(F)c(C(=O)c2c[nH]c3ncc(-c4ccc(Cl)cc4)cc23)c1F + Cc1cccc(N(C)C(=O)C2C(O)CCN2c2nc(C)cc(C(F)(F)F)c2C#N)c1, the viability, T/C was 86.1%.
CCc1cc2c(N3CCc4c(cc(Cn5ccnc5)cc4-c4cn(C)nc4C(F)(F)F)C3=O)ccnc2c(OC)n1 + Cc1cccc(N(C)C(=O)C2C(O)CCN2c2nc(C)cc(C(F)(F)F)c2C#N)c1 showed a viability, T/C of 79.5%.

Same assay, conditions: 997537-175-T-J1-PDC complex spheroid viability, combination with POLQ inhibitors; second compound 10 µM; first compound 1 µM; stronger effect = lower value
For Nc1ccn(C2OC(CO)C(O)C2(F)F)c(=O)n1 (configuration not stated) + Cc1cccc(N(C)C(=O)C2C(O)CCN2c2nc(C)cc(C(F)(F)F)c2C#N)c1, the viability, T/C was 86.9%.
CC1COCCN1c1cc(-c2ccnn2C)c2ccnc(-c3ccn[nH]3)c2n1 (configuration not stated) + COC1C(OC(N)=O)C(O)C(Oc2ccc3c(O)c(NC(=O)c4ccc(O)c(CC=C(C)C)c4)c(=O)oc3c2C)OC1(C)C showed a viability, T/C of 54%.
CC1COCCN1c1cc(C2(S(C)(=N)=O)CC2)nc(-c2ccnc3[nH]ccc23)n1 (configuration not stated) + Nc1ccc(C#CCN(C(=O)Cc2ncc(C(F)(F)F)cc2C(F)(F)F)c2ccc(F)cc2)nn1 showed a viability, T/C of 81.7%.
Compound CCCS(=O)(=O)Nc1ccc(F)c(C(=O)c2c[nH]c3ncc(-c4ccc(Cl)cc4)cc23)c1F + Cc1cccc(N(C)C(=O)C2C(O)CCN2c2nc(C)cc(C(F)(F)F)c2C#N)c1 has a viability, T/C of 81.5%.
CCc1cc2c(N3CCc4c(cc(Cn5ccnc5)cc4-c4cn(C)nc4C(F)(F)F)C3=O)ccnc2c(OC)n1 + Cc1cccc(N(C)C(=O)C2C(O)CCN2c2nc(C)cc(C(F)(F)F)c2C#N)c1 showed a viability, T/C of 67.1%.

Same assay, conditions: 997537-175-T-J1-PDC complex spheroid viability, combination with POLQ inhibitors; second compound 10 µM; first compound 3.16 µM; stronger effect = lower value
With Nc1ccn(C2OC(CO)C(O)C2(F)F)c(=O)n1 (configuration not stated) + Cc1cccc(N(C)C(=O)C2C(O)CCN2c2nc(C)cc(C(F)(F)F)c2C#N)c1 the viability, T/C was 47.2%.
In the case of CC1COCCN1c1cc(-c2ccnn2C)c2ccnc(-c3ccn[nH]3)c2n1 (configuration not stated) + COC1C(OC(N)=O)C(O)C(Oc2ccc3c(O)c(NC(=O)c4ccc(O)c(CC=C(C)C)c4)c(=O)oc3c2C)OC1(C)C, the viability, T/C is reported as 32.2%.
CC1COCCN1c1cc(C2(S(C)(=N)=O)CC2)nc(-c2ccnc3[nH]ccc23)n1 (configuration not stated) + Nc1ccc(C#CCN(C(=O)Cc2ncc(C(F)(F)F)cc2C(F)(F)F)c2ccc(F)cc2)nn1 showed a viability, T/C of 47%.
With CCCS(=O)(=O)Nc1ccc(F)c(C(=O)c2c[nH]c3ncc(-c4ccc(Cl)cc4)cc23)c1F + Cc1cccc(N(C)C(=O)C2C(O)CCN2c2nc(C)cc(C(F)(F)F)c2C#N)c1 the viability, T/C was 73.3%.
CCc1cc2c(N3CCc4c(cc(Cn5ccnc5)cc4-c4cn(C)nc4C(F)(F)F)C3=O)ccnc2c(OC)n1 + Cc1cccc(N(C)C(=O)C2C(O)CCN2c2nc(C)cc(C(F)(F)F)c2C#N)c1 showed a viability, T/C of 64.1%.

Same assay, conditions: 997537-175-T-J1-PDC complex spheroid viability, combination with POLQ inhibitors; second compound 10 µM; first compound 10 µM; stronger effect = lower value
Work on Nc1ccn(C2OC(CO)C(O)C2(F)F)c(=O)n1 (configuration not stated) + Cc1cccc(N(C)C(=O)C2C(O)CCN2c2nc(C)cc(C(F)(F)F)c2C#N)c1 yielded a viability, T/C of 82%.
Compound CC1COCCN1c1cc(-c2ccnn2C)c2ccnc(-c3ccn[nH]3)c2n1 (configuration not stated) + COC1C(OC(N)=O)C(O)C(Oc2ccc3c(O)c(NC(=O)c4ccc(O)c(CC=C(C)C)c4)c(=O)oc3c2C)OC1(C)C has a viability, T/C of 70.3%.
In the case of CC1COCCN1c1cc(C2(S(C)(=N)=O)CC2)nc(-c2ccnc3[nH]ccc23)n1 (configuration not stated) + Nc1ccc(C#CCN(C(=O)Cc2ncc(C(F)(F)F)cc2C(F)(F)F)c2ccc(F)cc2)nn1, the viability, T/C is reported as 55.8%.
Compound CCCS(=O)(=O)Nc1ccc(F)c(C(=O)c2c[nH]c3ncc(-c4ccc(Cl)cc4)cc23)c1F + Cc1cccc(N(C)C(=O)C2C(O)CCN2c2nc(C)cc(C(F)(F)F)c2C#N)c1 has a viability, T/C of 20.6%.
Compound CCc1cc2c(N3CCc4c(cc(Cn5ccnc5)cc4-c4cn(C)nc4C(F)(F)F)C3=O)ccnc2c(OC)n1 + Cc1cccc(N(C)C(=O)C2C(O)CCN2c2nc(C)cc(C(F)(F)F)c2C#N)c1 has a viability, T/C of 75.2%.

Reference: PubChem BioAssay AID1963825 (Molecular Pharmacology Branch, DTP, NCI, 2024)
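Also: luminescence signal used as a surrogate for viable cells; spheroids exposed to drugs for seven days before readout.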
